Results as given in patent publication US20040105849A1, “Treatment for SMA disease” (priority 2002, published 2004).

Key:
[1] = tested on: Patient A, Spinal Muscular Atrophy (SMA) Type I; assay: Tolerability / adverse effects of the supplements in Patient A; type: in vivo, human
Excerpt: It is understood that the amounts of the various ingredients of the method of the invention can be, as may be necessary, conveniently be adjusted up or down for body weigh and other variants of the disease. The mode of delivery may vary. […] Ingredients could also be injected into the gastric tube in solid, gel or semi-solid form. Other children may swallow ingredients in solid or liquid form (with pharmaceutically acceptable carriers, e.g., water).

[2] = tested on: Infantile Seborrhoeic Dermatitis (cradle cap); assay: Treatment of Infantile Seborrhoeic Dermatitis (cradle cap) in Patient A; type: in vivo, human; settings: about 4,000 mcg at intervals of three days per week
Excerpt: Early Symptoms and Patient Diagnosis. The patient (“Patient A”), a person. They were normal at birth with no signs of muscular weakness. Within three months of their birth, they developed a skin condition. […] Infantile Seborrhoeic Dermatitis, also known as cradle cap, is a condition that occurs in infants and is caused by the drying of excess oils excreted from the infant's body. It is characterized by a yellowish-whitish crust on the infant's head. Following medical consultation, various topical creams and ointments were employed without success. The B vitamin biotin was then given at a dosage of about 4,000 mcg at intervals of three days per week. Current research attributes cradle cap to a deficiency of this vitamin. […] Gut bacteria located in the large intestine are responsible for the production this B vitamin and a deficiency of this nutrient under normal conditions is rare.

In the case of `C[C@@H]1O[C@@H](OC[C@H]2O[C@@H](Oc3c(-c4ccc(O)c(O)c4)oc4cc(O)cc(O)c4c3=O)[C@H](O)[C@@H](O)[C@@H]2O)[C@H](O)[C@H](O)[C@H]1O` [Rutin], the “adverse effects at higher dosages” value ([1]; dosages higher than approximately 3 mg every three days) is reported as “nausea, decrease gastrointestinal motility and drowsiness” and the “adverse effect of rutin along with pectin” value ([1]; rutin added to pectin) is reported as “caused their lips to blister and peel”.

With `O=C(O)CCCC[C@@H]1SC[C@@H]2NC(=O)N[C@@H]21` [biotin] the “course of cradle cap” value [2] was “resolved itself almost immediately”.

`O=c1c(O)c(-c2ccc(O)c(O)c2)oc2cc(O)cc(O)c12` [quercetin] was tested, and the “adverse effect of too much quercetin” value ([1]; above 300 mg capsule, ½ capsule three days per week) was “depress Patient A's respiration”.
